One may read the IC50 as the concentration that gives 50% inhibition.

Assay [1] has as its system neointima formation. The note with it: intraluminal exposure of a denuded rat carotid artery; cited from earlier work.
Assay [2] has as its target cdk4/Cyclin D (Homo sapiens, UniProt P11802). Put plainly: Assay for inhibition of cdk4/Cyclin D, 32P filter plate. It counts as biochemical. The note with it: for IC50: cdk4, 25 μM ATP, retinoblastoma protein substrate, read-out: CYCK4 IC50. How it is done: Assay for Inhibition of cdk4/Cyclin D
The cdk4 enzyme assay for IC50 determination and kinetic evaluation was performed as follows: 96-well filter plates (Millipore MADVN6550) were used. The total volume was 0.1 mL containing a final concentration of buffer A (20 mM TRIS (tris[hydroxymethyl]aminomethane) (pH 7.4), 50 mM NaCl, 1 mM dithiothreitol, 10 mM MgCl2), 25 μM ATP containing 0.25 μCi [^32P]ATP, 20 ng Cdk4, 1 μg retinoblastoma protein, and the test compound at appropriate dilutions in buffer A. Buffer A alone without added test compound was employed as a control for no inhibition. Buffer A containing excess EDTA was used to determine the level of background ^32P in the absence of enzyme activity. All components except the ATP were added to the wells, and the plate was placed on a plate mixer for 2 minutes. The reaction was started by adding [^32P]ATP, and the plate was incubated at 25° C. for 15 minutes. The reaction was terminated by addition of 0.1 mL 20% trichloroacetic acid (TCA). The plate was kept at 4° C. for at least 1 hour to allow the substrate to precipitate. The wells were then washed five times with 0.2 mL 10% TCA, and ^32P incorporation was determined with a beta plate counter (Wallac Inc., Gaithersburg, Md.).

The target of assay [3] is T1, human FGF1(flg) receptor tyrosine kinase (Homo sapiens, UniProt P11362).
T1 construct: amplify a fragment of DNA that codes for the intracellular tyrosine kinase domain; made in house; host or cells: SF9 insect cells (baculovirus); crude cell lysate used
The assay is described as follows: FGF receptor (FGFr) tyrosine kinase assay. The class given is biochemical. As to conditions: FGFr enzyme lysate, Poly (4:1) glutamate-tyrosine substrate. The source says: (§1) For PDGF receptor (PDGFr) and FGF receptor (FGFr) tyrosine kinase assays, full-length cDNAs for the mouse PDGF-β and human FGF1(flg) receptor tyrosine kinases were obtained from J. Escobedo and prepared as described previously (Escobedo et al., J. Biol. Chem., 1988;262:1482–1487). PCR primers were designed to amplify a fragment of DNA that codes for the intracellular tyrosine kinase domain. The fragment was inserted into a baculovirus vector, cotransfected with AcMNPV DNA, and the recombinant virus was isolated. SF9 insect cells are infected with the virus to overexpress the protein, and the cell lysate was used for the assay.
(§2) PDGFr and FGFr enzyme assays were performed in 96-well plates (100 μL/incubation/well), and conditions were optimized to measure the incorporation of ^32P from [γ^32P]ATP into a glutamate-tyrosine co-polymer substrate. Briefly, to each well was added 82.5 μL incubation buffer containing 25 mM Hepes (pH 7.0), 150 mM NaCl, 0.1% Triton X-100, 0.2 mM PMSF, 0.2 mM Na3VO4, 10 mM MnCl2, and 750 μg/mL Poly (4:1) glutamate-tyrosine followed by 2.5 μL inhibitor and 5 μL enzyme lysate (7.5 μg/μL FGFr or 6.0 μg/μL PDGFr) to initiate the reaction. Following a 10-minute incubation at 25° C., […] [γ^32P]ATP (0.4 μCi plus 50 μM ATP) was added to each well, and samples were incubated for an additional 10 minutes at 25° C. The reaction was terminated by the addition of 100 μL 30% trichloroacetic acid (TCA) containing 20 mM sodium pyrophosphate and precipitation of material onto glass fiber mats (Wallac). Filters were washed three times with 15% TCA containing 100 mM sodium pyrophosphate, and the radioactivity retained on the filters was counted in a Wallac 1250 Betaplate reader. Nonspecific activity was defined as radioactivity retained on the filters following incubation of samples with buffer alone (no enzyme). Specific enzymatic activity (enzyme plus buffer) was defined as total activity minus nonspecific activity. The concentration of a compound that inhibited specific activity by 50% (IC50) was determined based on the inhibition curve.

Assay [4] concerns the target cdk2/cyclin A (Homo sapiens, UniProt P24941). The assay is described as follows: Assay for inhibition of cdk2 (cdk2/cyclin A), 32P filter plate. The class given is biochemical. As to conditions: retinoblastoma protein substrate, read-out: CYCK2A IC50. The procedure:
(§3) Assay for Inhibition of cdk1 and cdk2
(§4) Cdk1 and cdk2 enzyme assays for IC50 determinations and kinetic evaluation were performed as follows. 96-well filter plates (Millipore MADVN6550) were used. The total volume of each well in the assay was 0.1 mL in Buffer A (20 mM TRIS (pH 7.4), 50 mM NaCl, 1 mM dithiothreitol, 10 mM MgCl2), to which was added […] containing 0.25 μCi [^32P]ATP, 20 ng enzyme (cdk2/cyclin E, cdk2/cyclin A, or cdk1/cyclin B), 1 μg retinoblastoma protein, and appropriate dilutions in Buffer A of the particular test compound. Buffer A alone without added test compound was employed as a control for no inhibition. Buffer A containing excess EDTA was used to determine the level of background ^32P in the absence of enzyme activity. All components except the ATP were added to the wells, and the plate was placed on a plate mixer for 2 minutes. The reaction was initiated by addition of [^32P]ATP, and the plate was incubated at 25° C. for 15 minutes. The reaction was terminated by addition of 0.1 mL 20% TCA. The plate was kept at 4° C. for at least 1 hour to allow the substrate to precipitate. The wells were then washed five times with 0.2 mL 10% TCA, and ^32P incorporation was determined with a beta plate counter (Wallac Inc., Gaithersburg, Md.). The IC50 of the test compound was determined using the median effect method (Chou, T-C and Talalay, P. Applications of the median effect principle for the assessment of low-dose risk of carcinogens and for the quantitation of synergism and antagonism of chemotherapeutic agents. In: New Avenues in Developmental Cancer Chemotherapy (Eds. Harrap, K. T. and Connors, T. A.), pp. 37–64. Academic Press, New York, 1987).

Assay [5] deals with cdk2/cyclin E (Homo sapiens, UniProt P24941). The assay is described as follows: Assay for inhibition of cdk2 (cdk2/cyclin E), 32P filter plate. It counts as biochemical. As to conditions: retinoblastoma protein substrate, read-out: CYCK2E IC50. How it is done:
as §3, §4

The target in assay [6] is cdk1/cyclin B (Homo sapiens, UniProt P06493). Put plainly: Assay for inhibition of cdk1 (cdk1/cyclin B), 32P filter plate. The class given is biochemical. As to conditions: retinoblastoma protein substrate, read-out: CYCK1B IC50. The procedure:
as §3, §4

For assay [7], the target named is T2, mouse PDGF-β receptor tyrosine kinase (Mus musculus, UniProt P05622).
T2 construct: amplify a fragment of DNA that codes for the intracellular tyrosine kinase domain; made in house; host or cells: SF9 insect cells (baculovirus); crude cell lysate used
Put plainly: PDGF receptor (PDGFr) tyrosine kinase assay. The class given is biochemical. As to conditions: PDGFr enzyme lysate, Poly (4:1) glutamate-tyrosine substrate.
Text: as §1, §2

The test system of assay [8] is herpes simplex virus (HSV). As to conditions: related art (Schang et al.); cited from earlier work.

Bounds are passed on as bounds.

T2 sequence (P05622 599-961 limits assumed): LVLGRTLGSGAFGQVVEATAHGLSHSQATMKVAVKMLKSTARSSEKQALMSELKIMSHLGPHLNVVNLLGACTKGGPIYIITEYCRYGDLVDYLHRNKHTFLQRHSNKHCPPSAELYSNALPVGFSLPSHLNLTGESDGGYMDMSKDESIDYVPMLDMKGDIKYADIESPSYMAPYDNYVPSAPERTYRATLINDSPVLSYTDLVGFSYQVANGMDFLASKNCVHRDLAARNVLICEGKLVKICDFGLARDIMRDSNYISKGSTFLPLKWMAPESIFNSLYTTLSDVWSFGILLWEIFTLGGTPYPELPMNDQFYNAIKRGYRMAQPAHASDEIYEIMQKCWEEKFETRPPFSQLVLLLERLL
T1 sequence (P11362 478-767 limits assumed): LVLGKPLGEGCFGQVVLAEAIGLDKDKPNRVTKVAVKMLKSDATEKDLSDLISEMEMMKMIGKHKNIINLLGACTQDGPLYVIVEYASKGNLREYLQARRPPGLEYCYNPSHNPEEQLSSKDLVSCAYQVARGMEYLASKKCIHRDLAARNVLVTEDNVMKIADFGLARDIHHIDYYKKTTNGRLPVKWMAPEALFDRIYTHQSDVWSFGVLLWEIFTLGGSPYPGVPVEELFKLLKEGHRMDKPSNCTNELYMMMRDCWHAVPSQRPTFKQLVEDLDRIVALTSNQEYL
Sequence of cdk1/cyclin B (P06493 whole entry, species assumed): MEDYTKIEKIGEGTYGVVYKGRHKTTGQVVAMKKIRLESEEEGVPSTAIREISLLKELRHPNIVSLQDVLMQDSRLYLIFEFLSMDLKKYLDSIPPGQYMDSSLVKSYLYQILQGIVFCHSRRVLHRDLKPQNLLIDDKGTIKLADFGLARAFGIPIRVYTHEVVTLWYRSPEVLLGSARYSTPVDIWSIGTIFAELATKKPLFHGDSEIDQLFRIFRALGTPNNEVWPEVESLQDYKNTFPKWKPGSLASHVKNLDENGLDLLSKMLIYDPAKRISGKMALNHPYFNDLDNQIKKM
Sequence of cdk1/cyclin B (P14635 whole entry partner, species assumed): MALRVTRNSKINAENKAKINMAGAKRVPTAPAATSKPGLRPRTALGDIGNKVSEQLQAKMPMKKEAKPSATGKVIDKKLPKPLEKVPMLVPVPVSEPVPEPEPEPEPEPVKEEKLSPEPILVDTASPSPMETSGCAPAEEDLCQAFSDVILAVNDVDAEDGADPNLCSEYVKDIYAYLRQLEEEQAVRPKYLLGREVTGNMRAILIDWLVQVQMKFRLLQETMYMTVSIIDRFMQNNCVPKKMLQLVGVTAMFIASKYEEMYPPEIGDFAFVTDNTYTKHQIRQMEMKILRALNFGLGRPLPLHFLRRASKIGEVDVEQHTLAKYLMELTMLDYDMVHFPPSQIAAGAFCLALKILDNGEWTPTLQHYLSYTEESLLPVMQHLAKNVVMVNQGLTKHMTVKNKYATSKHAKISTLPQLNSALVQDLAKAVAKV
Sequence of cdk4/Cyclin D (P11802 whole entry, species assumed): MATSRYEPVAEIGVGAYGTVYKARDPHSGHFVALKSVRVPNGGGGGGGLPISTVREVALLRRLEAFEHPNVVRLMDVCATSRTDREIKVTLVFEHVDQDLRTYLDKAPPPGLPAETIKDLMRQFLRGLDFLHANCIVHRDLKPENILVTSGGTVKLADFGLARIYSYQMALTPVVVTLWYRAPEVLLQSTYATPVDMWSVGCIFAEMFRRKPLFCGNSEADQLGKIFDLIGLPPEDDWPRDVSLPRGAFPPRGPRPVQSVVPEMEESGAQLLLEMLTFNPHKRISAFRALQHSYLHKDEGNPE
Sequence of cdk4/Cyclin D (P24385 whole entry partner, species assumed): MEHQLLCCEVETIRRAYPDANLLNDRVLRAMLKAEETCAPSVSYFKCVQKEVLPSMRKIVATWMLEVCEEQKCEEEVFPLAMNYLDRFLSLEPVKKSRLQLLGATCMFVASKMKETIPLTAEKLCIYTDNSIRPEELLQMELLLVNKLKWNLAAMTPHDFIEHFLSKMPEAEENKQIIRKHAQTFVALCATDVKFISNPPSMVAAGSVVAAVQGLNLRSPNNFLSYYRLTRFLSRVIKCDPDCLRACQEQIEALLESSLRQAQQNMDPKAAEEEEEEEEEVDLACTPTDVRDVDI

With `COc1ccc(CNc2nc(N(CCO)CCO)nc3c2ncn3C(C)C)cc1` [CVT-313], in assay [1], the “inhibition of neointima formation” value is given as “greater than 80%”.
Regarding `O=S1(=O)C=Cc2cnc(Nc3ccc(N4CCNCC4)cc3)nc2N1C1CCCC1` [Compound 4, (1-Cyclopentyl-2,2-dioxo-1,2-dihydro-2l^6-thia-1,6,8-triaza-naphthalen-7-yl)-(4-piperazin-1-yl-phenyl)-amine], the IC50 was determined as 5 nM in assay [2]; 179 nM in assay [3]; 106 nM in assay [4]; 145 nM in assay [5]; 360 nM in assay [6]; 1070 nM in assay [7]. Moreover, the “selectivity for Cdk4 over cdk1, cdk2, FGF and PDGF” value in assay [2] (conclusion from Table 2) is “specifically inhibits Cdk4”.
For the compound `CC1(C)CN(c2ccc(Nc3ncc4c(n3)N(C3CCCC3)S(=O)(=O)C=C4)cc2)CCN1` [Compound 6, (1-Cyclopentyl-2,2-dioxo-1,2-dihydro-2l^6-thia-1,6,8-triaza-naphthalen-7-yl)-[4-(3,3-dimethyl-piperazin-1-yl)-phenyl]-amine], the IC50 in assay [2] turned out to be 1.3 nM; in assay [4] it was 294 nM; in assay [5], 600 nM; in assay [6], 3600 nM.
`CC1=Cc2cnc(Nc3ccc(N4CCNCC4)cc3)nc2N(C2CCCC2)S1(=O)=O` [Compound 10, (1-Cyclopentyl-3-methyl-2,2-dioxo-1,2-dihydro-2l^6-thia-1,6,8-triaza-naphthalen-7-yl)-(4-piperazin-1-yl-phenyl)-amine]: the IC50 in assay [2] was determined as 93 nM; in assay [3], 575 nM; in assay [4], 5450 nM; in assay [5] it was 26000 nM; in assay [6], 36000 nM; in assay [7], 290 nM.
For the compound `CCC1=Cc2cnc(Nc3ccc(N4CCNCC4)cc3)nc2N(C2CCCC2)S1(=O)=O` [Compound 14, (1-Cyclopentyl-3-ethyl-2,2-dioxo-1,2-dihydro-2l^6-thia-1,6,8-triaza-naphthalen-7-yl)-(4-piperazin-1-yl-phenyl)-amine], the IC50 in assay [2] is 50 nM; in assay [3], 1030 nM; in assay [4], 4000 nM; in assay [5], > 5000 nM; in assay [7] it was 216 nM.
For the compound `O=S1(=O)CCc2cnc(Nc3ccc(N4CCNCC4)cc3)nc2N1C1CCCC1` [Compound 16, (1-Cyclopentyl-2,2-dioxo-1,2,3,4-tetrahydro-2l^6-thia-1,6,8-triaza-naphthalen-7-yl)-(4-piperazin-1-yl-phenyl)-amine], the IC50 in assay [2] amounted to 45 nM; in assay [4], 930 nM; in assay [5], 930 nM; in assay [6] it was 4140 nM.
With `CC[C@H](CO)Nc1nc(NCc2ccccc2)c2ncn(C(C)C)c2n1` [roscovitine], the HSV replication entry in assay [8] is “inhibited”.
